Assay results taken from patent US20060194837A1, “Tetrahydroisoquinoline compounds” (priority 2004, published 2006).

What was measured:
Rat SERT = target: T1, Rat SERT (Rattus norvegicus, UniProt P31652); experiment: Rat brain SERT binding ([3H]-citalopram displacement); conditions: rat brain membranes without cerebellum, 0.6 nM [3H]-citalopram, 60 min at 25° C.; read-out: Rat SERT Ki
T1 construct: A rat brain without cerebellum (Zivic Laboratories, Inc.—Pittsburgh, Pa.) was homogenized; tissue Zivic Laboratories, Inc; host or cells: rat brain without cerebellum, membranes
Procedure: The supernatant was removed and re-centrifuged at 15,000 rpm for 30 min. […] Membranes were incubated with 0.6 nM [^3H]-Citalopram plus/minus test compounds for 60 min at 25° C. and harvested by rapid filtration over GF/C glass fiber filters (pretreated with 0.3% polyethylenimine) followed by four washes with ice-cold buffer.

human H3 receptor = target: T2, human H3 receptor (Homo sapiens, UniProt Q9Y5N1); experiment: H3 receptor binding (N-[3H]-α-methylhistamine displacement); conditions: membranes of SK-N-MC cells expressing cloned human H3 receptor, 0.8 nM N-[3H]-α-methylhistamine, 60 min at 25° C.
T2 construct: expressed in transfected cells
Procedure: Briefly, cell pellets from SK-N-MC cells expressing the human H3 receptor were homogenized in 50 mM Tris-HCl/5 mM EDTA and re-centrifuged at 30,000 g for 30 min. Pellets were re-homogenized in 50 mM Tris/6 mM EDTA (pH 7.4). Membranes were incubated with 0.8 nM N-[^3H]-α-methylhistamine plus/minus test compounds for 60 min at 25° C. and harvested by rapid filtration over GF/C glass fiber filters (pretreated with 0.3% polyethylenimine) followed by four washes with ice-cold buffer. Nonspecific binding was defined in the presence of 10 μM histamine.

T2 sequence (Q9Y5N1 whole entry): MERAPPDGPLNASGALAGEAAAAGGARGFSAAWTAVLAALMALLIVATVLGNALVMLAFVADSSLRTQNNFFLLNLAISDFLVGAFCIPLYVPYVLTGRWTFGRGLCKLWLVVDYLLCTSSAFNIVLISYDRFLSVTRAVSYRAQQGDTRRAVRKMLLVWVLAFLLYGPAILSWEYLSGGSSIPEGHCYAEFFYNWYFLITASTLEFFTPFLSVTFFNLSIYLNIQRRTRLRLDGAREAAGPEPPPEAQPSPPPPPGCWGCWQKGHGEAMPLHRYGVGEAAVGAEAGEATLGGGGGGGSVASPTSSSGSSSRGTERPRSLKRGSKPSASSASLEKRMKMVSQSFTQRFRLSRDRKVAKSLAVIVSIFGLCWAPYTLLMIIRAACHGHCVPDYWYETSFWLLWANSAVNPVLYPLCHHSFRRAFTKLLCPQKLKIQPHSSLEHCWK
T1 sequence (P31652 whole entry): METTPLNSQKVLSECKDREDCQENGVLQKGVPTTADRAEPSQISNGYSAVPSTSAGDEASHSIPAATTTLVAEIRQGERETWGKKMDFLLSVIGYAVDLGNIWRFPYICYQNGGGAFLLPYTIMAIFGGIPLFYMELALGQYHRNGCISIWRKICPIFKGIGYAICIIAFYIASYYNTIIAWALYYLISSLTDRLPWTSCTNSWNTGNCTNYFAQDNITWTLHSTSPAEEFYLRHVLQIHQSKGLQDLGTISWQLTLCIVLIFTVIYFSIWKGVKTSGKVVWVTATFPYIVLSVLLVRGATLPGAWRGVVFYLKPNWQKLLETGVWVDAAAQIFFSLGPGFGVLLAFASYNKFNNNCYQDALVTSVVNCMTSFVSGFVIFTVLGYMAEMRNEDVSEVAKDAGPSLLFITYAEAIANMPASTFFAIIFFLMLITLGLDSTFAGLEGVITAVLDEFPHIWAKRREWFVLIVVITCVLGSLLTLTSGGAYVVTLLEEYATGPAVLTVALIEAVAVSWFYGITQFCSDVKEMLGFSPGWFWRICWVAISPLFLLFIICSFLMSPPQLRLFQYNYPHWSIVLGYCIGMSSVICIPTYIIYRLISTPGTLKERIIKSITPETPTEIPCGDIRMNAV

`CN1Cc2cc(OCCCN3CCC(F)CC3)ccc2C(c2ccc(N(C)C)nc2)C1` (stereo not drawn) [Example 188, (5-{7-[3-(4-Fluoro-piperidin-1-yl)-propoxy]-2-methyl-1,2,3,4-tetrahydro-isoquinolin-4-yl}-pyridin-2-yl)-dimethyl-amine] was tested. Which Ki (Rat SERT) did it give?
The Ki was 37 nM.

And the Ki (human H3 receptor)?
The Ki was 22 nM.

For `CN1Cc2cc(OCCCN3CCC(F)CC3)ccc2C(c2ccc(Sc3ncccn3)nc2)C1` (stereo not drawn) [Example 196, 7-[3-(4-Fluoro-piperidin-1-yl)-propoxy]-2-methyl-4-[6-(pyrimidin-2-ylsulfanyl)-pyridin-3-yl]-1,2,3,4-tetrahydro-isoquinoline], which Ki (Rat SERT) is on record?
The Ki was 2000 nM.

What about the Ki (human H3 receptor) of the same molecule?
Its Ki is 4 nM.

For `COc1ccc(C2CN(C)Cc3cc(OCCCN4CC(F)(F)C4)ccc32)cc1` (stereo not drawn) [Example 182, 7-[3-(3,3-Difluoro-azetidin-1-yl)-propoxy]-4-(4-methoxy-phenyl)-2-methyl-1,2,3,4-tetrahydro-isoquinoline], which Ki (Rat SERT) is on record?
Its Ki is 2 nM.

What about the Ki (human H3 receptor) of the same molecule?
Its Ki is 59 nM.

Which Ki (Rat SERT) does the source give for `CCN1CCC(COc2ccc3c(c2)CN(C)CC3c2ccc(OC)c(Cl)c2)CC1` (stereo not drawn) [Example 107, 4-(3-Chloro-4-methoxy-phenyl)-7-(1-ethyl-piperidin-4-ylmethoxy)-2-methyl-1,2,3,4-tetrahydro-isoquinoline] here?
Its Ki is 10 nM.

What about the Ki (human H3 receptor) of the same molecule?
The Ki was 5 nM.

`COc1ccc(C2CN(C)Cc3cc(OCCCN4Cc5ccccc5C4)ccc32)cc1` (stereo not drawn) [Example 16, 7-[3-(1,3-Dihydro-isoindol-2-yl)-propoxy]-4-(4-methoxy-phenyl)-2-methyl-1,2,3,4-tetrahydro-isoquinoline] was tested. Which Ki (Rat SERT) did it give?
Its Ki is 6 nM.

What about the Ki (human H3 receptor) of the same molecule?
Its Ki is 25 nM.

For `COc1ccc(C2CN(C)Cc3cc(OC[C@H]4CNCCO4)ccc32)cc1` (stereo partly drawn) [Example 253, 4-(4-Methoxy-phenyl)-2-methyl-7-(morpholin-2R-ylmethoxy)-1,2,3,4-tetrahydro-isoquinoline], which Ki (Rat SERT) is on record?
The Ki was 2 nM.

And the Ki (human H3 receptor)?
The Ki was 263 nM.

With `CCN1CCC(COc2ccc3c(c2)CN(C)CC3c2ccc(SC)cc2)CC1` (stereo not drawn) [Example 105, 7-(1-Ethyl-piperidin-4-ylmethoxy)-2-methyl-4-(4-methylsulfanyl-phenyl)-1,2,3,4-tetrahydro-isoquinoline] as the molecule, how does the Ki (Rat SERT) read?
The Ki was 6 nM.

What about the Ki (human H3 receptor) of the same molecule?
The Ki was 5 nM.

How did the Ki (Rat SERT) turn out when `C=CCN1CCN(CCCOc2ccc3c(c2)CN(C)CC3c2ccc(OC)cc2)CC1` (stereo not drawn) [Example 206, 7-[3-(4-Allyl-piperazin-1-yl)-propoxy]-4-(4-methoxy-phenyl)-2-methyl-1,2,3,4-tetrahydro-isoquinoline] was run?
Its Ki is 3 nM.

What about the Ki (human H3 receptor) of the same molecule?
Its Ki is 37 nM.

For `COc1ccc(C2CN(C)Cc3cc(OCC4CCN(C5CC5)CC4)ccc32)cc1` (stereo not drawn) [Example 249, 7-(1-Cyclopropyl-piperidin-4-ylmethoxy)-4-(4-methoxy-phenyl)-2-methyl-1,2,3,4-tetrahydro-isoquinoline], which Ki (Rat SERT) is on record?
The Ki was 6 nM.

And the Ki (human H3 receptor)?
The Ki was 4 nM.

Which Ki (Rat SERT) does the source give for `COc1ccc(C2CN(C)Cc3cc(OCCCN4CCN(c5nccs5)CC4)ccc32)cc1` (stereo not drawn) [Example 200, 4-(4-Methoxy-phenyl)-2-methyl-7-[3-(4-thiazol-2-yl-piperazin-1-yl)-propoxy]-1,2,3,4-tetrahydro-isoquinoline] here?
Its Ki is 3 nM.

And the Ki (human H3 receptor)?
The Ki was 227 nM.

Which Ki (Rat SERT) does the source give for `CSc1ccc(C2CN(C)Cc3cc(OCC4CCNCC4)ccc32)cc1` (stereo not drawn) [Example 80, 2-Methyl-4-(4-methylsulfanyl-phenyl)-7-(piperidin-4-ylmethoxy)-1,2,3,4-tetrahydro-isoquinoline] here?
The Ki was 3 nM.

And the Ki (human H3 receptor)?
The Ki was 130 nM.

For `COc1ccc(C2CN(C)Cc3cc(OCC4CCN(CC(F)(F)F)CC4)ccc32)cc1` (stereo not drawn) [Example 123, 4-(4-Methoxy-phenyl)-2-methyl-7-[1-(2,2,2-trifluoro-ethyl)-piperidin-4-ylmethoxy]-1,2,3,4-tetrahydroisoquinoline], which Ki (Rat SERT) is on record?
The Ki was 18 nM.

And the Ki (human H3 receptor)?
The Ki was 346 nM.

With `COc1ccc(C2CN([C@H](C)c3ccccc3)Cc3cc(OCCCN4CCOCC4)ccc32)cc1` (single isomer, unassigned) [Example 75, 4-(4-Methoxy-phenyl)-7-(3-morpholin-4-yl-propoxy)-2-(1-phenyl-ethyl)-1,2,3,4-tetrahydro-isoquinoline] as the molecule, how does the Ki (Rat SERT) read?
Its Ki is 79 nM.

And the Ki (human H3 receptor)?
Its Ki is 14 nM.

Which results are given for `CSc1ccc(C2CN(C)Cc3cc(OCC4CN(CCF)C4)ccc32)cc1` (stereo not drawn) [Example 239, 7-[1-(2-Fluoro-ethyl)-azetidin-3-ylmethoxy]-2-methyl-4-(4-methylsulfanyl-phenyl)-1,2,3,4-tetrahydro-isoquinoline]?
Ki (Rat SERT): 2 nM; Ki (human H3 receptor): 30 nM

What does the source list for `COc1ccc(C2CN(C)Cc3cc(OCCCN4CCN(CC5OCCO5)CC4)ccc32)cc1` (stereo not drawn) [Example 207, 7-[3-(4-[1,3]-Dioxolan-2-ylmethyl-piperazin-1-yl)-propoxy]-4-(4-methoxy-phenyl)-2-methyl-1,2,3,4-tetrahydro-isoquinoline]?
Ki (Rat SERT): 15 nM; Ki (human H3 receptor): 78 nM

What does the source list for `COc1ccc(C2CN(C)Cc3cc(OCCCN4CCOC[C@@H]4C)ccc32)cc1F` (stereo partly drawn) [Example 221, 4-(3-Fluoro-4-methoxy-phenyl)-2-methyl-7-[3-(3S-methyl-morpholin-4-yl)-propoxy]-1,2,3,4-tetrahydro-isoquinoline]?
Ki (Rat SERT): 11 nM; Ki (human H3 receptor): 9 nM

What does the source list for `CSc1ccc(C2CN(C)Cc3cc(OC4CCNCC4)ccc32)cc1` (stereo not drawn) [Example 149, 2-Methyl-4-(4-methylsulfanyl-phenyl)-7-(piperidin-4-yloxy)-1,2,3,4-tetrahydro-isoquinoline]?
Ki (Rat SERT): 4 nM; Ki (human H3 receptor): 240 nM

`COc1ccc(C2CN(C)Cc3cc(OCCCN4CCC(F)CC4)ccc32)cc1F` (single isomer, unassigned) [Example 144, 4-(3-Fluoro-4-methoxy-phenyl)-7-[3-(4-fluoro-piperidin-1-yl)-propoxy]-2-methyl-1,2,3,4-tetrahydro-isoquinoline] was tested. Which Ki (Rat SERT) did it give?
The Ki was 5 nM.

And the Ki (human H3 receptor)?
The Ki was 6 nM.

With `COc1ccc(C2CN(C)Cc3cc(OC[C@H]4CN(C5CC5)CCO4)ccc32)cc1` (single isomer, unassigned) [Example 261B, 7-(4-Cyclopropyl-morpholin-2R-ylmethoxy)-4-(4-methoxy-phenyl)-2-methyl-1,2,3,4-tetrahydro-isoquinoline] as the molecule, how does the Ki (Rat SERT) read?
Its Ki is 17 nM.

What about the Ki (human H3 receptor) of the same molecule?
Its Ki is 64 nM.

`COc1ccc(C2CN(C)Cc3cc(OCCC4CCCN4C)ccc32)cc1` (single isomer, unassigned) [Example 240B, 4-(4-Methoxy-phenyl)-2-methyl-7-[2-(1-methyl-pyrrolidin-2-yl)-ethoxy]-1,2,3,4-tetrahydro-isoquinoline] was tested. Which Ki (Rat SERT) did it give?
Its Ki is 5 nM.

And the Ki (human H3 receptor)?
The Ki was 21 nM.

Which results are given for `COc1ccc(C2CN(C)Cc3cc(OCCCN=C4N(C)CCCN4C)ccc32)cc1` (stereo not drawn) [Example 15, (1,3-Dimethyl-tetrahydro-pyrimidin-2-ylidene)-{3-[4-(4-methoxy-phenyl)-2-methyl-1,2,3,4-tetrahydro-isoquinolin-7-yloxy]-propyl}-amine]?
Ki (Rat SERT): 11 nM; Ki (human H3 receptor): 499 nM

With `COc1ccc(C2CN(C)Cc3cc(OC[C@H]4CN(C5CC5)CCO4)ccc32)cc1` (single isomer, unassigned) [Example 261A, 7-(4-Cyclopropyl-morpholin-2R-ylmethoxy)-4-(4-methoxy-phenyl)-2-methyl-1,2,3,4-tetrahydro-isoquinoline] as the molecule, how does the Ki (Rat SERT) read?
The Ki was 32 nM.

What about the Ki (human H3 receptor) of the same molecule?
Its Ki is 73 nM.

Which results are given for `CSc1ccc(C2CN(C)Cc3cc(OC4CCN(C5CCOCC5)CC4)ccc32)cc1` (stereo not drawn) [Example 246, 2-Methyl-4-(4-methylsulfanyl-phenyl)-7-[1-(tetrahydro-pyran-4-yl)-piperidin-4-yloxy]-1,2,3,4-tetrahydro-isoquinoline]?
Ki (Rat SERT): 10 nM; Ki (human H3 receptor): 3 nM

For `COc1ccc(C2CN(C)Cc3cc(OCC4CCNCC4)ccc32)cc1` (stereo not drawn) [Example 78, 4-(4-Methoxy-phenyl)-2-methyl-7-(piperidin-4-ylmethoxy)-1,2,3,4-tetrahydro-isoquinoline], which Ki (Rat SERT) is on record?
Its Ki is 2 nM.

What about the Ki (human H3 receptor) of the same molecule?
The Ki was 96 nM.

With `COc1ccc(C2CN(C)Cc3cc(OC4CCN(C(C)C)CC4)ccc32)cc1F` (stereo not drawn) [Example 120, 4-(3-Fluoro-4-methoxy-phenyl)-7-(1-isopropyl-piperidin-4-yloxy)-2-methyl-1,2,3,4-tetrahydro-isoquinoline] as the molecule, how does the Ki (Rat SERT) read?
The Ki was 10 nM.

What about the Ki (human H3 receptor) of the same molecule?
Its Ki is 1 nM.

With `COc1ccc(C2CN(C)Cc3cc(OC[C@@H]4CN(C(C)C)CCO4)ccc32)cc1` (mixture of isomers) [Example 255, 7-(4-Isopropyl-morpholin-2S-ylmethoxy)-4-(4-methoxy-phenyl)-2-methyl-1,2,3,4-tetrahydro-isoquinoline] as the molecule, how does the Ki (Rat SERT) read?
The Ki was 16 nM.

And the Ki (human H3 receptor)?
The Ki was 2 nM.

Which Ki (Rat SERT) does the source give for `CSc1ccc(C2CN(C)Cc3cc(OCCCN4CCCCC4)c(C)cc32)cc1` (stereo not drawn) [Example 270, 2,6-Dimethyl-4-(4-methylsulfanyl-phenyl)-7-(3-piperidin-1-yl-propoxy)-1,2,3,4-tetrahydro-isoquinoline] here?
The Ki was 18 nM.

And the Ki (human H3 receptor)?
Its Ki is 6 nM.

How did the Ki (Rat SERT) turn out when `CN1Cc2cc(OCCCN3CCC(F)CC3)ccc2C(c2ccc(Sc3ccccc3)nc2)C1` (stereo not drawn) [Example 191, 7-[3-(4-Fluoro-piperidin-1-yl)-propoxy]-2-methyl-4-(6-phenylsulfanyl-pyridin-3-yl)-1,2,3,4-tetrahydro-isoquinoline] was run?
The Ki was 69 nM.

What about the Ki (human H3 receptor) of the same molecule?
Its Ki is 26 nM.

For `COc1ccc(C2CN(C)Cc3cc(OCCCNC(C)C)ccc32)cc1` (stereo not drawn) [Example 230, Isopropyl-{3-[4-(4-methoxy-phenyl)-2-methyl-1,2,3,4-tetrahydro-isoquinolin-7-yloxy]-propyl}-amine], which Ki (Rat SERT) is on record?
The Ki was 1 nM.

And the Ki (human H3 receptor)?
Its Ki is 17 nM.

Which results are given for `CN1Cc2cc(OCCCN3CCC(F)CC3)ccc2C(c2ccc(SC(F)(F)F)cc2)C1` (stereo not drawn) [Example 217, 7-[3-(4-Fluoro-piperidin-1-yl)-propoxy]-2-methyl-4-(4-trifluoromethylsulfanyl-phenyl)-1,2,3,4-tetrahydro-isoquinoline]?
Ki (Rat SERT): 58 nM; Ki (human H3 receptor): 42 nM
